From patent publication US10143691B2, “Pathogenic control of apoptosis” (CSIR, priority 2014, dated 2018)
Entries after “also recorded” stand apart in the source; their conditions may differ.

Assays:
H2A.XpSer139 = assay: Immunofluorescence staining of double strand breaks (H2A.XpSer139); assay type: cell-based; conditions: HIV-1 infected cells treated with 10 μM drug
Experimental: (§1) For each experiment, Ghost(3) cells or IPSC-derived primary macrophages were infected or treated with 500 nM Doxorubicin on coverslips, fixed for 10 mins in fresh 4% paraformaldehyde at room temperature, then washed 3 times in PBS and permeabilised for 10 mins in ice-cold methanol at […]. Coverslips were washed once in PBS and incubated in blocking buffer (5% goat serum, 0.3% TritonX100 in PBS) for 60 mins at room temperature. Cells were incubated in primary antibody solution (1% BSA, 0.3% Triton X100 in PBS) overnight at 4° C. Double strand breaks were detected using rabbit polyclonal anti-phosphohistone H2A.X Ser139 (Cell Signaling). Activated ATM was detected using rabbit monoclonal anti-phosphoATM Ser1981 (Cell Signaling). The ability of p53 to regulate apoptosis was detected using rabbit polyclonal antiphosphop53 Ser46 (Cell Signaling). Viral p24 was detected using mouse monoclonal anti-HIV1p24 (AIDS Research and Reference Reagent Program, Division of AIDS, NIAID, NIH). HuR was detected using mouse monoclonal anti-HuR 3A2 (Santa Cruz Biotechnology). hnRNPK was detected using goat polyclonal anti-hnRNPK P20 (Santa Cruz Biotechnology). Coverslips were washed 3 times (5 mins each on an orbital shaker) with wash buffer (0.05% Tween20 in PBS), followed by incubation with secondary antibodies conjugated to either Atto550 or Atto565 or Atto647 for 60 mins at room temperature. Coverslips were washed 3 times (5 mins each on an orbital shaker) with wash buffer (0.05% Tween20 in PBS). Coverslips were incubated in equilibration buffer (0.4% glucose, 2×SCC) for 5 mins and counter stained with 1 mg/ml DAPI (4′,6-diamidino-2-phenylindole; Life Technologies). Coverslips were mounted in glox buffer (3.7 mg/ml glucose oxidase, 1 U catalase) and imaged.
For each experiment, cells were infected or treated with drugs on coverslips, fixed for 10 mins in fresh 4% paraformaldehyde at room temperature, then washed 3 times in PBS and permeabilised for 10 mins in ice-cold methanol at −20° C. Coverslips were washed once in PBS and incubated in blocking buffer (5% goat serum, 0.3% Triton-X100 in PBS) for 60 mins at room temperature. […] Double strand breaks were detected using rabbit polyclonal anti-phospho-histone H2A.X Ser139 (Cell Signaling). Activated ATM was detected using rabbit monoclonal anti-phospho-ATM Ser1981 (Cell Signaling). The ability of p53 to regulate apoptosis was detected using rabbit polyclonal anti-phospho-p53 Ser46 (Cell Signaling). Viral p24 was detected using mouse monoclonal anti-HIV-1-p24 (AIDS Research and Reference Reagent Program, Division of AIDS, NIAID, NIH). HuR was detected using mouse monoclonal anti-HuR 3A2 (Santa Cruz Biotechnology). hnRNP-K was detected using goat polyclonal anti-hnRNP-K P-20 (Santa Cruz Biotechnology). […]

HIV-1 = HIV-1 infection/replication in Ghost(3) reporter cells (LTR-driven GFP expression); assay type: cell-based; conditions: Ghost(3) cells exposed to HIV-1 and treated
Experimental: Viral stocks were titred using TZMBI cells and used to infect Ghost(3) cells using an MOI=1.0, or IPSO-derived macrophages using an MOI=0.5. Where indicated, Ghost(3) cells were treated with 10 μM of either Raltegravir, Maraviroc, Tenofovir (AIDS Research and Reference Reagent Program, Division of AIDS, NIAID, NIH) or Nutlin3a (Sigma) for up to 48 hours.
Viral stocks were titred using TZM-BI cells and used to infect Ghost(3) cells using an MOI=1.0, or IPSO-derived macrophages using an MOI=0.5. Where indicated, cells were treated with 10 μM of either Raltegravir, Maraviroc, Tenofovir (AIDS Research and Reference Reagent Program, Division of AIDS, NIAID, NIH) or Doxorubicin (Sigma-Aldrich), or Nutlin3a (Sigma-Aldrich), or MAP2K1 inhibitor (U-0126) or ERK2 inhibitor (FR180204) for up to 48 hours.

lincRNAp21 = assay: lincRNA-p21 expression by RNA FISH spot counts and quantitative RT-PCR; assay type: cell-based, human; conditions: HIV-infected Ghost(3) cells, qRT-PCR relative to HPRT
Experimental: RNA FISH on Ghost(3) cells was performed according to Raj, 2008 and on primary macrophages according to Schaffer, 2013. For both methods 48 20mer probes (Biosearch) targeted to human lincRNAp21 were synthesised baring a […] C6dT. The amino group was subsequently conjugated to the following NHSester dyes: ATTO565, ATTO647N (ATTOTEC) or Alexa Fluor 647 (Invitrogen). Briefly, oligonucleotide probes were ethanol precipitated and resuspended in 0.1 M sodium tetraborate (Sigma). Approximately 0.3 mg of the NHSester dye (ATTOTEC) was dissolved in dimethyl sulphoxide (Sigma). The dye solution was added to the probe solution and incubated overnight in the dark at 37° C. Following the conjugation reaction, the probes were ethanol precipitated overnight, and resuspended in 0.1 M triethyl ammonium (Sigma). Conjugated probes were separated and purified to enrich for dyeconjugated probes by reverse phase HPLC on a C18 column. […]
For each experiment, Ghost(3) cells or IPSO-derived primary macrophages were infected or treated with 500 nM Doxorubicin over time and total RNA was extracted from cells using TRIzol® (Life Technologies), treated with RQ1 RNase-free DNase (Promega) and reverse transcribed using SuperScript III Reverse Transcriptase (Life Technologies). Quantitative RTPCR was performed using Sso Fast EvaGreen™ supermix (BioRad) on a BioRad CFX96 real-time PCR detection system. […]

hnRNP-K = assay: Immunofluorescence of hnRNP-K cellular location in Ghost(3) cells; assay type: cell-based; conditions: Ghost(3) cells exposed to HIV-1 and concurrently treated with 10 μM antiretroviral
Experimental: as §1
For each experiment, cells were infected or treated with drugs on coverslips, fixed for 10 mins in fresh 4% paraformaldehyde at room temperature, then washed 3 times in PBS and permeabilised for 10 mins in ice-cold methanol at −20° C. Coverslips were washed once in PBS and incubated in blocking buffer (5% goat serum, 0.3% Triton-X100 in PBS) for 60 mins at room temperature. Cells were incubated in primary antibody solution (1% BSA, 0.3% Triton X-100 in PBS) overnight at 4° C. Double strand breaks were detected using rabbit polyclonal anti-phospho-histone H2A.X Ser139 (Cell Signaling). Activated ATM was detected using rabbit monoclonal anti-phospho-ATM Ser1981 (Cell Signaling). The ability of p53 to regulate apoptosis was detected using rabbit polyclonal anti-phospho-p53 Ser46 (Cell Signaling). Viral p24 was detected using mouse monoclonal anti-HIV-1-p24 (AIDS Research and Reference Reagent Program, Division of AIDS, NIAID, NIH). HuR was detected using mouse monoclonal anti-HuR 3A2 (Santa Cruz Biotechnology). hnRNP-K was detected using goat polyclonal anti-hnRNP-K P-20 (Santa Cruz Biotechnology). Coverslips were washed 3 times (5 mins each on an orbital shaker) with wash buffer (0.05% Tween-20 in PBS), followed by incubation with secondary antibodies conjugated to either Atto-550 or Atto-565 or Atto-647 for 60 mins at room temperature. Coverslips were washed 3 times (5 mins each on an orbital shaker) with wash buffer (0.05% Tween-20 in PBS). Coverslips were incubated in equilibration buffer (0.4% glucose, 2×SCC) for 5 mins and counter stained with 1 mg/ml DAPI (4′,6-diamidino-2-phenylindole; Life Technologies). Coverslips were mounted in glox buffer (3.7 mg/ml glucose oxidase, 1 U catalase) and imaged.

## Cc1nnc(C(=O)NC(C)(C)c2nc(C(=O)NCc3ccc(F)cc3)c(O)c(=O)n2C)o1 [Raltegravir]
H2A.XpSer139
  H2A.X staining in HIV-infected cells: abrogate this effect
HIV-1
  HIV-1 infection / replication (GFP expression): no GFP expression
lincRNAp21
  lincRNA-p21 expression: no change in lincRNAp21 expression; also recorded: does not affect lincRNAp21 expression
hnRNP-K
  cellular location of hnRNP-K: no nuclear hnRNPK over time; also recorded: cytoplasmic hnRNPK
